The values below come from patent US20070105162A1, “Monovalent avidin and streptavidin compositions” (Massachusetts Institute of Technology, priority 2005, published 2007).

For data set [1], the system named is biotinylated AP-neuroligin-1 on hippocampal neurons. Kind of data set: AP-neuroligin-1 clustering in hippocampal neurons labeled with avidin. The data set is classed as cell-based, rat. The conditions noted are these: after a two hour incubation at 37° C. The procedure:
HeLa cells are grown in Dulbecco's Modified Eagle Medium (DMEM) with 10% Fetal Calf Serum, 50 U/mL penicillin and 50 μg/mL streptomycin. HeLa stably expressing AP-CFP-TM or Ala-CFP-TM have been previously described (Howarth, M. et al., Proc. Natl. Acad. Sci. USA 102: 7583-7588, 2005). Dissociated primary neuronal cultures are prepared from Embryonic Day 18 or 19 (E18/19) rats and transfected with Lipofectamine 2000 at DIV6 as in Levinson et al. (Levinson, J. N. et al. J. Biol. Chem. 280: 17312-17319, 2005). […]
Images of HeLa cells are collected on a Zeiss Axiovert 200M inverted epifluorescence microscope using a 40× oil-immersion lens and a MicroMAX CCD camera (Roper Scientific; Tucson, Ariz.). CFP (420DF20 excitation, 450DRLP dichroic, 475DF40 emission) and Alexa568 (560DF20 excitation, 585DRLP dichroic, 605DF30 emission) images are collected and analyzed using OpenLab software (Improvision; Lexington, Mass.). Fluorescence images are background-corrected. […] Images are scaled to 16 bits and analyzed in Northern Eclipse (Empix Imaging; Ontario, Canada) with user-written software. […] Results are then calculated in terms of clusters per micrometer of dendrite. For assessment of pre-synaptic terminals, clusters are determined as before and average grey levels of clusters are compared between transfected dendrites and untransfected dendrites within the same field of view. […]

In data set [2] the test system is biotinylated AP-CFP-TM on HeLa cells. Nature of the data set: Staining of biotinylated AP-CFP-TM on HeLa with Alexa Fluor 568-conjugated avidins. The following applies: avidin, Alexa Fluor 568 conjugate. The data set is classed as cell-based. The procedure: Enzymatic biotinylation and imaging of HeLa transfectants are performed as previously described (Howarth, M. et al., Proc. Natl. Acad. Sci. USA 102: 7583-7588, 2005), except instead of 10 μM biotin and 1 mM ATP, we add 10 μM biotin-AMP (synthesized according to Coleman and Huang; Coleman, T. M. and Huang, F. Chem. Biol. 9: 1227-1236, 2002) to give equivalent biotinylation but minimizing the risk of purinoreceptor activation by ATP (Rathbone, M. P. et al., Prog. Neurobiol. 59: 663-690, 1999). […] Biotinylation of neurons is performed at day in vitro (DIV) 8 in Hanks' Balanced Salt Solution (HBSS) (Invitrogen) with 0.2 μM biotin ligase and 10 μM biotin-AMP for 5 min at 37° C. […] Neurons are washed with NeuroBasal media (Invitrogen) supplemented with B-27 (Invitrogen), 50 U/mL penicillin, 50 μg/mL streptomycin, and 0.2 mM L-glutamine and chased in the same medium for 0 or 2 hr at 37° C. Cells are then fixed in −20° C. methanol. There was no signal from wild-type avidin labeling if neurons were instead transfected with Ala-neuroligin-1 containing a point mutation in AP, confirming the specificity of labeling. […]
Images of HeLa cells are collected on a Zeiss Axiovert 200M inverted epifluorescence microscope using a 40× oil-immersion lens and a MicroMAX CCD camera (Roper Scientific; Tucson, Ariz.). CFP (420DF20 excitation, 450DRLP dichroic, 475DF40 emission) and Alexa568 (560DF20 excitation, 585DRLP dichroic, 605DF30 emission) images are collected and analyzed using OpenLab software (Improvision; Lexington, Mass.). Fluorescence images are background-corrected. […] Images are scaled to 16 bits and analyzed in Northern Eclipse (Empix Imaging; Ontario, Canada) with user-written software. […] Results are then calculated in terms of clusters per micrometer of dendrite. For assessment of pre-synaptic terminals, clusters are determined as before and average grey levels of clusters are compared between transfected dendrites and untransfected dendrites within the same field of view. […] “n” represents the number of transfected neurons for which clusters were measured. […]

The conditions of data set [3]: literature value; read-out: Kd for biotin, reported; cited from earlier work.
Data set [4] deals with biotinylated cells. Kind of data set: Binding of N23A, S27D streptavidin to biotinylated cells. The data set is classed as cell-based.

As to “wild-type avidin: Wild-type avidin tetramer of four wild-type monomers (SEQ ID NO:17) [reference compound]”, in data set [1], the “staining pattern of labeled AP-neuroligin-1” value is given as “distinct aggregates”. Also, the “Alexa staining of biotinylated AP-CFP-TM” value in data set [2] is reported as “detected equally well”.

As usually defined, the Kd is the constant that tells how readily two partners part at equilibrium. Turning to “N23A, S27D: Streptavidin double mutant, still a tetramer, one of the weakest reported affinities for biotin”, in data set [3], the Kd was 71 µM. In addition, the “binding to biotinylated cells” value in data set [4] is recorded as “still bound to biotinylated cells”.
